This is an account of results in US6949575B2, “Method of inhibiting amyloid protein aggregation and imaging amyloid deposits using aminoindane derivatives” (Pfizer Inc., priority 2000, dated 2005).

Structures are written as SMILES. pIC50: −log10 of the molar value. Several values for one entry are separate records, joined by “and”; a condition that tells them apart may be missing. Equal values may be shown once.

For one assay, the target named is T1, Soluble Aβ(1-40) (Homo sapiens, UniProt P05067).
T1 construct: Soluble Aβ(1-40)—2.2 mg/mL in deionized H2O
T1 sequence (P05067 672-711 limits assumed): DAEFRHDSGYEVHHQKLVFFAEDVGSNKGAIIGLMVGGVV
As to the kind of experiment: BASST (Beta-Amyloid Self-Seeding, Thioflavin T): inhibitors of self-seeded amyloid fibril growth. The conditions noted are these: 30 μM soluble Aβ(1-40), 37° C., 3 to 5 hours, thioflavin T fluorescence. The format is biochemical. The protocol: • 1) Prepare reaction mixture above by mixing components and storing on ice. • 2) Pipet 14.5 μL of reaction mixture into each of 50 wells on a polypropylene U-bottom 96-well microtiter plate on ice (Costar 3794). • 3) Add 1.7 μL of diluted compound to be tested to each well in a column of eight, including solvent control. Serial 3-fold dilutions from 1 mM (100 μM final) in assay buffer-urea=7 dilutions+zero. Each 96-well plate can therefore accommodate 11 samples+1 Congo Red control (0.039-5 μM final in 2-fold steps). • 4) Seal the plate with aluminum film (Beckman 538619) and incubate for 10 minutes on ice. • 5) Raise the temperature to 37° C. and incubate for 3 to 5 hours (depending on the lot of the peptide). • 6) Remove the aluminum film and add 200 μL/well of ice cold assay buffer with urea, collecting the radiolabeled fibrils by vacuum filtration through 0.2-μm pore size GVWP filters in 96-well plates (Millipore MAGV […], Bedford, Mass.). Determine the radioactivity of the filters using standard methods well-known to those skilled in the art. BASST (Beta-Amyloid Self-Seeding, Thioflavin T) An assay for inhibitors of self-seeded amyloid fibril growth Methods: Materials: Stock Solutions: Assay Buffer-50 mM sodium phosphate, pH 7.5, 100 mM NaCl, 0.02% NaN3, 1 M urea (filter and store at 4° C.) Soluble Aβ(1-40)-2.2 mg/mL in deionized H2O (store in aliquots at -20° C., keep on ice when thawed) will self-seed after 1 week storage. Typically, the solution should be stored until no lag phase is seen in the assay. Final assay conditions: 30 μM soluble Aβ(1-40) in deionized water in assay buffer. Compound to be tested is dissolved in DMSO, typically 5 to 50 mM stock, such that the final concentration of DMSO is <1% v/v in the assay. Assay: Reaction mixture for 50 assays (on ice) comprised of 1 μL of soluble Aβ(1-40)+13.5 μL assay buffer per assay. The following are the amounts of the components of the reaction mixture that result in each of the 50 assay wells. 50 μL soluble Aβ(1-40) 675 μL assay buffer Assay Method • 1) Prepare the reaction mix above by mixing the components and storing on ice. • 2) Pipet 14.5 μL of reaction mixture into each of 50 wells of a polystyrene U-bottom 96-well microtiter plate (Coming 25881-96) on ice. • 3) Add 1.7 μL of diluted compound to be tested to each well in a column of eight, including solvent control. Serial 3-fold dilutions from 1 mM (100 μM final) in assay buffer-urea=7 dilutions+zero. Each 96-well plate can therefore accommodate 11 samples+1 Congo Red control (0.039-5 μM final in 2-fold steps). • 4) Seal the plate with aluminum film and incubate for 10 minutes on ice. • 5) Raise the temperature to 37° C. and incubate for 3 to 5 hours (depends on the lot of the peptide). • 6) Remove the aluminum film and add 250 μL/well of 5 μM thioflavin T (ThT) [T-3516, Sigma-Aldrich] in 50 mM glycine-NaOH, pH 8.5. Read fluorescence on a plate reader (ex=440 nm/20 nm; em=485 nm/20 nm) within 5 minutes. BAPA (Beta-Amyloid Peptide Aggregation)

Another assay concerns the target T2, Soluble Aβ(1-40) peptide (Homo sapiens, UniProt P05067).
T2 construct: Soluble Aβ(1-40) peptide; purchased Bachem, Torrance, Calif
As to the kind of experiment: BASSR (Beta-Amyloid Self-Seeding Radioassay): inhibitors of self-seeded amyloid fibril growth. The format is biochemical. The conditions noted are these: 30 μM soluble Aβ(1-40) + 125I-labeled Aβ(1-40), 37° C., 3 to 5 hours, filtration; replicate values. As for the experimental part: BASSR (Beta-Amyloid Self-Seeding Radioassay)
An assay for inhibitors of self-seeded amyloid fibril growth
Assay Buffer—[…] sodium phosphate, pH 7.5, 100 mM NaCl, 0.02% NaN3, 1 M urea (filter and store at 4° C.)
Soluble Aβ(1-40) peptide (Bachem, Torrance, Calif.)—2.2 mg/mL in deionized H2O (stored in aliquots at −20° C., keep on ice when thawed) will self-seed after 1 week storage. Typically, the solution should be stored until no lag phase is seen in the assay.
^125I-labeled Aβ(1-40)—150 to 350K cpm/μL in 100% acetonitrile—0.1% trifluoroacetic acid (TFA)—1% β-mercaptoethanol (aliquots stored at −20° C.). ^125I-labeled Aβ(1-40) can be made in accordance with the procedure set forth by H. Levine, III in Neurobiol. Aging, 16:755 (1995), which is hereby incorporated by reference, or this reagent may be purchased from Amersham, Arlington Heights, Ill. Final assay conditions: 30 μM soluble Aβ(1-40) in deionized water in assay buffer+20 to 50K cpm ^125I-labeled Aβ(1-40) per assay. Compound to be tested is dissolved in dimethylsulfoxide (DMSO), typically 5 to 50 mM stock, such that the final concentration of DMSO is <1% v/v in the assay. Assay: Reaction mixture for 50 assays (on ice) is comprised of 0.1 to 0.2 μL of ^125I-labeled A^125I-labeled Aβ(1-40)+1 μL of soluble Aβ(1-40)+13.5 μL assay buffer per assay. The following are the amounts of the components of the reaction mixture sufficient for 50 assay wells.
• 1) Prepare reaction mixture above by mixing components and storing on ice. • 2) Pipet 14.5 μL of reaction mixture into each of 50 wells on a polypropylene U-bottom 96-well microtiter plate on ice (Costar 3794). • 3) Add 1.7 μL of diluted compound to be tested to each well in a column of eight, including solvent control. Serial 3-fold dilutions from 1 mM (100 μM final) in assay buffer-urea=7 dilutions+zero. Each 96-well plate can therefore accommodate 11 samples+1 Congo Red control (0.039-5 μM final in 2-fold steps). • 4) Seal the plate with aluminum film (Beckman 538619) and incubate for 10 minutes on ice. • 5) Raise the temperature to 37° C. and incubate for 3 to 5 hours (depending on the lot of the peptide). • 6) Remove the aluminum film and add 200 μL/well of ice cold assay buffer with urea, collecting the radiolabeled fibrils by vacuum filtration through 0.2-μm pore size GVWP filters in 96-well plates (Millipore MAGV N22, Bedford, Mass.). Determine the radioactivity of the filters using standard methods well-known to those skilled in the art. BASST (Beta-Amyloid Self-Seeding, Thioflavin T)

T2 sequence (P05067 672-711 limits assumed): as above

Regarding `CCCCCN(CCCCC)C1Cc2ccc(Nc3ccc(C)cc3C(=O)O)cc2C1` (stereo not drawn) [Example 6, 2-(2-Dipentylamino-indan-5-yl-amino)-5-methyl-benzoic acid], the negative-log IC50 (pIC50) was 4.68 and < 4.00 against Soluble Aβ(1-40); less than 4.00 at Soluble Aβ(1-40) peptide.
In the case of `CCCCCN(CCCCC)C1Cc2ccc(Nc3ccc([N+](=O)[O-])cc3C(=O)O)cc2C1` (stereo not drawn) [Example 1, 2-[(2-N,N-di-n-pentylamino)-indan-5-yl]amino-5-nitro-benzoic Acid], the negative logarithm of the IC50 (pIC50) is 4.40 on Soluble Aβ(1-40) and less than 4.00 at Soluble Aβ(1-40) peptide.
Turning to `CCCCCN(CCCCC)C1Cc2ccc(Nc3ccc(C(=O)O)cc3[N+](=O)[O-])cc2C1` (stereo not drawn) [Example 7, 4-(2-Dipentylamino-indan-5-yl-amino)-3-nitro-benzoic Acid], the pIC50 at Soluble Aβ(1-40) was 5.10. Further, the IC50 at Soluble Aβ(1-40) peptide is > 100 µM (3×) and 15 µM.
On to `O=C(O)c1cc([N+](=O)[O-])ccc1Nc1ccc2c(c1)CC(NCc1ccc(F)cc1)C2` (stereo not drawn) [Example 10, 2-[2-(4-Fluorobenzylamino)-indan-5-ylamino]-5-nitro-benzoic acid], for which the pIC50 at Soluble Aβ(1-40) was 4.52. The IC50 at Soluble Aβ(1-40) peptide is > 100 µM (2×) and 90 µM and 10 µM.
For the compound `CCCCCNC1Cc2ccc(Nc3ccc([N+](=O)[O-])cc3C(=O)O)cc2C1` (stereo not drawn) [Example 12, 2-[2-(n-Pentylamino)-indan-5-ylamino]-5-nitro-benzoic acid], the pIC50 against Soluble Aβ(1-40) and at Soluble Aβ(1-40) peptide was less than 4.00 in each case.
Compound `COc1ccc(Nc2ccc3c(c2)CC(NCc2ccc(Cl)c(Cl)c2)C3)c(C(=O)O)c1` (stereo not drawn) [Example 5, 2-[2-(3,4-Dichlorobenzylamino)-indan-5-ylamino]-5-methoxy-benzoic acid] showed a pIC50 against Soluble Aβ(1-40) of 4.52. Besides, at Soluble Aβ(1-40) peptide, the IC50 was > 100 µM (2×) and 30 µM.

Usually pIC50 stands for the IC50 on a negative log10 scale, so that one unit is a factor of ten. What is called IC50 is the point on the concentration scale where inhibition reaches its midpoint.
